Results reported in article PMC2951497 (Journal of medicinal chemistry, 2010).
“Also recorded” adds a separate entry of the source.

Columns and labels:
5-HT4 receptors = 5-HT4 receptors (Homo sapiens, UniProt Q13639); assay: GloSensor L9 assay for cAMP response; assay type: cell-based; settings: agonist/inverse agonist assay; Ag. = agonist; Inv. Ag. = Inverse agonist
[1] = biological target: human recombinant 5-HT4 receptors (h5-HT4) (Homo sapiens, UniProt Q13639); assay: NIMH-PDSP binding to human recombinant 5-HT4 receptors, [3H]GR 113808; settings: for h5-HT4 Ki: h5-HT4 receptors expressed in HEK293T cells, averages of triplicate measurements
hGABAA = assay: NIMH-PDSP binding screen; parameters: species or system human; settings: read-out: Binding affinities (Ki) hGABAA
h5-HT1E = h5-HT1E (Homo sapiens, UniProt P28566); assay: NIMH-PDSP binding screen
BZP (rat brain site) = assay: NIMH-PDSP binding screen; settings: read-out: Binding affinities (Ki) BZP (rat brain site)

Chain of 5-HT4 receptors (Q13639 whole entry): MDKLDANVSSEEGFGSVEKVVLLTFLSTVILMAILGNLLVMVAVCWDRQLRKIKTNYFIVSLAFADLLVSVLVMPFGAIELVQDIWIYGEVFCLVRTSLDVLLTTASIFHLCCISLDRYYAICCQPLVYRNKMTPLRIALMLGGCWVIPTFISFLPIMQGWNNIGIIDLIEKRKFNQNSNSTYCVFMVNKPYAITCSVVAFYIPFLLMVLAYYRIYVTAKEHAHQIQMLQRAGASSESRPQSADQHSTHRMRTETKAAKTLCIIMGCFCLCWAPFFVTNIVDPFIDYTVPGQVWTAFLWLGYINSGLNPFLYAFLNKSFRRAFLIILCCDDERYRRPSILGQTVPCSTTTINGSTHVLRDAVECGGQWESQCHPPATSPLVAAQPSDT
Chain of human recombinant 5-HT4 receptors (h5-HT4) (Q13639 whole entry): as above
Chain of h5-HT1E (P28566 whole entry): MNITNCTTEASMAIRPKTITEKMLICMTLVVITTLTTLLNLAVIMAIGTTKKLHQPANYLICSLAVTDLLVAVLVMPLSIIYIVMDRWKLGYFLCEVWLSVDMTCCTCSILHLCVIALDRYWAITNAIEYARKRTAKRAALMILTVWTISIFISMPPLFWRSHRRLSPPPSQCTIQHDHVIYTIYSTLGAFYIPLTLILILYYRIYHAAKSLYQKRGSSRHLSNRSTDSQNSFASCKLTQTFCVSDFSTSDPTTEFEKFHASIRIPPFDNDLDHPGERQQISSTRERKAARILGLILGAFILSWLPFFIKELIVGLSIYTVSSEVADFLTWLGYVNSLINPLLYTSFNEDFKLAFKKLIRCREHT

SMILES	Efficacy (5-HT4 receptors)	Ki (hGABAA) [µM]	Ki (h5-HT1E) [µM]	Ki (BZP (rat brain site)) [µM]	selectivity against the full range of tested receptors and binding sites ([1]; 5-HT4 receptor selectivity)	h5-HT4 Ki [1]
CCCCN1CCC(COC(=O)c2cc(I)c(N)c3c2OCCO3)CC1 [Compound 1, (1-Butylpiperidin-4-yl)methyl 8-amino-7-iodo-2,3-dihydrobenzo[b][1,4]dioxine-5-carboxylate, reference compound]	inverse agonists					
CCCCN1CCC(COC(=O)c2ccc(N)c3c2OCCO3)CC1 [Compound 4, reference compound]	antagonists (inactive)					
CCCCN1CCC(COC(=O)c2cc(Cl)c(NC)c3c2OCCO3)CC1 [Compound 8, (1-Butylpiperidin-4-yl)methyl 7-chloro-8-(methylamino)-2,3-dihydrobenzo[b][1,4]dioxine-5-carboxylate]	inverse agonists	> 10	> 10	> 10		low nanomolar; also recorded: binding affinity comparable to that of 1
CCCCN1CCC(COC(=O)c2cc(Br)c(NC)c3c2OCCO3)CC1 [Compound 9, (1-Butylpiperidin-4-yl)methyl 7-bromo-8-(methylamino)-2,3-dihydrobenzo[b][1,4]dioxine-5-carboxylate]						low nanomolar affinity
CCCCN1CCC(COC(=O)c2ccc(N)c(OC)c2)CC1 [Compound 13, (1-Butylpiperidin-4-yl)methyl 4-amino-3-methoxybenzoate]	antagonists (inactive)	> 10		> 10	greater than 60 fold	low nanomolar; also recorded: affinity comparable to that of 1
CCCCN1CCC(COC(=O)c2cc(F)c(N)c3c2OCCO3)CC1 [Compound 17, (1-Butylpiperidin-4-yl)methyl 8-amino-7-fluoro-2,3-dihydrobenzo[b][1,4]dioxine-5-carboxylate]	inverse agonists					low nanomolar

Now from value to compound, other results behind:

Efficacy (5-HT4 receptors)	Ki (hGABAA) [µM]	Ki (h5-HT1E) [µM]	Ki (BZP (rat brain site)) [µM]	selectivity against the full range of tested receptors and binding sites ([1]; 5-HT4 receptor selectivity)	SMILES	h5-HT4 Ki [1]
inactive					CCCCN1CCC(COC(=O)c2cc(C)c(N)c3c2OCCO3)CC1 [Compound 7, (1-Butylpiperidin-4-yl)methyl 8-amino-7-methyl-2,3-dihydrobenzo[b][1,4]dioxine-5-carboxylate]	
potent full agonist					CCCCN1CCC(COC(=O)c2ccc(N)cc2OC)CC1 [Compound 12, (1-Butylpiperidin-4-yl)methyl 4-amino-2-methoxybenzoate]	
